Source: patent US20090156551A1, “NOVEL COMPOSITION” (priority 2007, published 2009)
Read-outs that look alike come from different tables or passages of the source.

What was measured:
TIMP-1 = assay: Gene expression in normal human chondrocytes, RT-PCR; format: cell-based; details: for Expression level (%) TIMP-1: at 12.5 μmol/L, 4 hours, % of unstimulated cells (100%)
Experimental: [Worded in the source for another target; this target is reported under the same test.] (§1) The effect of MA and HO, mixtures thereof as well as combinations with glucosamine sulfate and chondroitin sulfate on the expression of human aggrecan, collagen I, collagen II, or chondrocyte transcription factors (SOX-6, -9) was measured in vitro in normal human chondrocytes (derived from knee) (CC-2550; Cambrex, respectively). A control experiment without the compounds was done concomitantly to compare the expression of these genes (percentage expression of gene in controls was set to 100%).

Aggrecan = assay: as above; format: cell-based; details: 4 hrs
Experimental: as §1

ADAMTS-5 = assay: as above; format: cell-based; details: stim. 4 hrs; 500 mg/L; % of IL1β-treated cells
Experimental: [Worded in the source for another target; this target is reported under the same test.] as §1

SOX-9 = assay: as above; format: cell-based; details: for Expression level (%) SOX-9: at 12.5 μmol/L, 4 hours, % of unstimulated cells (100%)
Experimental: as §1

Inflammatory mediator NO = assay: Inhibition of nitric oxide synthesis in LPS-stimulated RAW264.7 macrophages (Griess reaction); format: cell-based, murine; details: for anti-inflammatory activity (in words): NO inhibition; for IC50: Mus musculus
Experimental: The anti-inflammatory effects were determined in cellular assays by measuring the inhibition of the synthesis of nitric oxide and/or pro-inflammatory prostaglandins (PGE2). PGE2 plays a critical role in the inflammation process, while nitric oxide (NO) is a hallmark of inflammation in various chronic inflammatory diseases including various forms of arthritis, gastro-intestinal diseases and metabolic syndrome X. The effects on the inflammatory response were tested in cellular assays using a murine macrophage cell line, RAW264.7. The cells were purchased from ATCC (Manassas, Va., USA) and cultured in DMEM containing streptomycin/penicillin, non-essential amino acids and 10% fetal calf serum (FCS). In order to test a large range of concentration of MA and HO as well as mixtures thereof, cells (˜50'000/well) were seeded into flat-bottomed microtiter plates and cultured for one day. Cells were then starved in complete medium containing 0.25% FCS (D-025). After overnight culture, medium was removed and replaced by 100 μL of D-025 containing the test compounds at twice the final concentration. Subsequently, 100 μL of D-025 containing 2 μg/ml LPS was added (i.e. final LPS concentration of 1 μg/ml) and the cells cultured for 24 hours. Substances were usually tested in a concentration range from 0.2 to 50 μM in two-fold dilution steps. All treatments were done in duplicates and several experimental series were done for each treatment. Concentrations of nitrite which was rapidly formed from nitric oxide released by cells were determined by the Griess reaction using sodium nitrite as standard. Briefly, 50 μl of supernatant was mixed with Griess reagent 1 (25 μL) and Griess reagent 2 (25 μL), centrifuged and the optical density at 540 nm determined. PGE2 secreted into the cell culture medium was determined by EIA obtained from Cayman Chemicals (Ann Harbor, Wis., USA) and used according to the manufacturer's instructions. All determinations were done in duplicates and at various dilutions of the culture supernatant. IC50 values for LPS-stimulated cells were calculated using a […] least-square fitting equation [y=A+((B−A)/(1+((C−x)̂D))] for best-fit curves (Excel fit software program).
In order to determine the synergistic concentration range of MA to HO, various mixtures thereof were tested for their anti-inflammatory by measuring the inhibition of the synthesis of nitric oxide (NO) as outlined above.
The synergistic effect of a combination of a mixture of MA/HO (1:3 w/w) with glucosamine sulfate (ratio MA/HO (1:3 w/w) to glucosamine sulfate: 50 μmol/L to 50 μmol/L) or chondroitin sulfate (ratio MA/HO (1:3 w/w) to chondroitin sulfate: 13.3 mg/L (i.e. 50 μmol/L) to 500 mg/L) on the inhibition of the inflammatory mediator nitric oxide (NO) has been evaluated based on the method published by Chou and Talalay (A simple generalized equation for the analysis of multiple inhibitions of Michealis-Menten kinetic systems. J. Biol. Chem. 1977. 252: 6438-6442).

MMP-2 = assay: Gene expression in normal human chondrocytes, RT-PCR; format: cell-based; details: 4 d; 500 mg/L; % of IL1β-treated cells
ADAMTS-4 = assay: as above; format: cell-based; details: unstim. 4 d; 50 μmol/L
MMP-9 = assay: as above; format: cell-based; details: stim. 4 hrs; 50 μmol/L
Collagen II = assay: as above; format: cell-based; details: 4 hrs; 50 μmol/L
Collagen I = assay: as above; format: cell-based; details: for Expression level (%) Collagen I: at 12.5 μmol/L, 4 hours, % of unstimulated cells (100%)
[1] = test system: normal human chondrocytes; assay: Effects on chondrocytes (cartilage build-up), overall gene expression; format: cell-based; details: 12.5 μmol/L, un- (non-IL1 beta-) stimulated cells
Experimental: as §1
In table 2.1 the effect of MA and HO alone as well as of mixtures thereof in the indicated molar ratios on the expression of genes that are involved in cartilage build-up is shown.

SOX-6 = assay: Gene expression in normal human chondrocytes, RT-PCR; format: cell-based; details: at 12.5 μmol/L, 4 hours; % of unstimulated cells (100%)
TNF-alpha = assay: Inflammatory gene expression in RAW 264.7 cells, quantitative RT-PCR; format: cell-based, murine; details: at 12.5 μmol/L, 4 hours; relative to LPS-stimulated cells (100%)
Source text: (§2) Inflammatory responses are orchestrated by the transient activation of a variety of genes. Their regulation is tightly controlled via signaling pathways and eventually proteins that control the expression of genes such as transcription factors. Consequently, the effect of the compounds (each of them and various ratios of mixtures) has also been evaluated at the level of the expression of genes that are involved in the inflammatory response. These comprise genes of the prostaglandin synthesis pathway (e.g. COX-2), interleukins (e.g. IL1-α, IL-1β, IL-6), cytokines (e.g. TNF-α), inducible nitric oxide synthase (iNOS) and chemokines. RAW 264.7 cells were stimulated in the presence of different concentrations of substances. After 4 hours, RNA was extracted and the expression of genes determined by quantitative RT-PCR as described by Richard, […]. and […]. in Mol Nutr Food Res 2005. 49: 431-442. In table 3, the effect of MA and HO alone as well as of mixtures thereof in the indicated molar ratios on the expression of inflammatory genes or on anti-inflammatory transcription factors (I-κBα) is shown. The level of mRNA was determined by RT-PCR and expressed relative to the level observed in LPS-stimulated cells (i.e. without compounds).

IL-1alpha = assay: as above; format: cell-based, murine; details: at 12.5 μmol/L, 4 hours; relative to LPS-stimulated cells (100%)
Source text: as §2

IL-10 = assay: as above; format: cell-based, murine; details: at 12.5 μmol/L, 4 hours; relative to LPS-stimulated cells (100%)
Source text: as §2

I-κBalpha = assay: as above; format: cell-based, murine; details: at 12.5 μmol/L, 4 hours; relative to LPS-stimulated cells (100%)
Source text: as §2

IL-RI Receptor for Il-1 = assay: Gene expression in normal human chondrocytes, RT-PCR; format: cell-based; details: at 12.5 μmol/L, 4 hours; control set at 100%
[2] = test system: Inflammatory mediator PGE2; assay: Inhibition of PGE2 synthesis in LPS-stimulated RAW264.7 macrophages (EIA); format: cell-based, murine; details: Mus musculus, read-out: IC50 Observed, inflammatory mediator PGE2
Experimental: The anti-inflammatory effects were determined in cellular assays by measuring the inhibition of the synthesis of nitric oxide and/or pro-inflammatory prostaglandins (PGE2). […] The cells were purchased from ATCC (Manassas, Va., USA) and cultured in DMEM containing streptomycin/penicillin, non-essential amino acids and 10% fetal calf serum (FCS). […] Cells were then starved in complete medium containing 0.25% FCS (D-025). After overnight culture, medium was removed and replaced by 100 μL of D-025 containing the test compounds at twice the final concentration. Subsequently, 100 μL of D-025 containing 2 μg/ml LPS was added (i.e. final LPS concentration of 1 μg/ml) and the cells cultured for 24 hours. […] Concentrations of nitrite which was rapidly formed from nitric oxide released by cells were determined by the Griess reaction using sodium nitrite as standard. Briefly, 50 μl of supernatant was mixed with Griess reagent 1 (25 μL) and Griess reagent 2 (25 μL), centrifuged and the optical density at 540 nm determined. PGE2 secreted into the cell culture medium was determined by EIA obtained from Cayman Chemicals (Ann Harbor, Wis., USA) and used according to the manufacturer's instructions. […] IC50 values for LPS-stimulated cells were calculated using a two-parametric least-square fitting equation [y=A+((B−A)/(1+((C−x)̂D))] for best-fit curves (Excel fit software program).

[3] = LPS 1 μg/ml, 24 hours, RAW264.7, read-out: IC50 Observed, inflammatory mediator NO

| Compound | anti-inflammatory activity (in words) (Inflammatory mediator NO; single substance) | cartilage build-up effect (in words) [1] | Expression level (%) TIMP-1 (TIMP-1) [%] | Expression level (%) SOX-9 (SOX-9) [%] | IC50 (Inflammatory mediator NO; [3]) [µM] | Expression level (%) Collagen I (Collagen I) [%] | Expression level (%) SOX-6 (SOX-6) [%] | Expression level (%) TNF-alpha (TNF-alpha) [%] | Expression level (%) IL-1alpha (IL-1alpha) [%] | Expression level (%) IL-10 (IL-10) [%] | Expression level (%) I-κBalpha (I-κBalpha) [%] | Expression level (%) IL-RI (Receptor for Il-1) (IL-RI Receptor for Il-1) [%] | further results |
| --- | --- | --- | --- | --- | --- | --- | --- | --- | --- | --- | --- | --- | --- |
| Chondroitin sulfate | marginal anti-inflammatory |  |  |  |  |  |  |  |  |  |  |  | level of gene expression TIMP-1 (TIMP-1; unstim., 4 d, 500 mg/L): 106%; level of gene expression Aggrecan (Aggrecan; stim., 500 mg/L): 62%; level of gene expression ADAMTS-5 (ADAMTS-5): 107%; level of gene expression SOX-9 (SOX-9; 500 mg/L, % of unstimulated cells): 147%; IC50 Nitric Oxide (Inflammatory mediator NO; single substance, LPS-stimulated RAW264.7): >50 µg/mL; level of gene expression MMP-2 (MMP-2): 93% |
| N[C@H]1C(O)O[C@H](CO)[C@@H](O)[C@@H]1O.O=S(=O)(O)O (stereo partly drawn) [Glucosamine sulfate, glucosamine sulfate] | marginal anti-inflammatory |  |  |  |  |  |  |  |  |  |  |  | level of gene expression ADAMTS-4 (ADAMTS-4): 101%; level of gene expression TIMP-1 (TIMP-1; 4 hrs, 50 μmol/L): 110%; level of gene expression Aggrecan (Aggrecan; 50 μmol/L): 81%; level of gene expression MMP-9 (MMP-9): 114%; IC50 (Inflammatory mediator NO; single substance, LPS-stimulated RAW264.7, read-out: IC50 Nitric Oxide): > 100 µM; level of gene expression Collagen II (Collagen II): 154%; level of gene expression Collagen 1 (Collagen I; 4 hrs, 50 μmol/L): 121% |
| C=CCc1ccc(O)c(-c2ccc(O)c(CC=C)c2)c1 [HO, 3′,5-Diallyl-2,4′-biphenyldiol] |  | favors cartilage build-up | 106 | 124 | 4.58 | 100 | 130 | 81 | 68 | 94 | 96 | 89 | IC50 ([2]; LPS 1 μg/ml, 24 hours, RAW264.7): 2.05 µM |
| C=CCc1ccc(O)c(-c2cc(CC=C)ccc2O)c1 [MA, 5,5′-Diallyl-2,2′-biphenyldiol] |  | to lesser extent | 96 | 110 | 8.91 | 78 | 94 | 96 | 70 | 136 | 99 | 98 | IC50 ([2]; RAW264.7, 24 h): 5.09 µM |
